Source: patent EP3760204A1, “MEDICAMENT FOR PREVENTION OR TREATMENT OF HUNTINGTON'S DISEASE” (Medizinische Universität Graz, priority 2019, dated 2021)

What was measured:
HepG2 cells [1] = test: Autophagic flux assay (LC3 II Western blot, with or without chloroquine) in HepG2 cells; format: cell-based, human; conditions: 50µM hyperforin vs ethanol vehicle, Figure 6A
Protocol: (§1) Western blot: Protein lysate was generated by homogenization (Magnalyzer, Roche) of tissue or cell pellet in homogenization buffer with protease and phosphatase inhibitors (Halt tablets, Invitrogen). After homogenization, lysates were sonicated 2x for 10" each. Lysates were then centrifuged for 10 min at 4°C and the supernatant was subjected to BCA protein estimation (Thermo Fisher). Equal amounts of lysate were loaded to self-made acrylamide gels. After separation, the protein was transferred to a PVDF membrane with semi-dry transfer.

TFEB = test: LC3 II induction after TFEB knockdown (siTFEB) in HepG2 cells; format: cell-based, human; conditions: 50µM, +/- chloroquine, Figure 9
Protocol: as §1

alpha-1-antitrypsin = test: Pathological alpha-1-antitrypsin (Z-allele) accumulation in transfected HeLa cells; format: cell-based, human; conditions: HeLa cells transfected with PXR/RXR and Z-allele of alpha-1-antitrypsin, 50µM, 24h; Figure 10
Protocol: as §1

HepG2 cells [2] = test: pGFP-RFP-LC3 autophagic flux assay in transfected HepG2 cells; conditions: fed condition, 50µM, Figures 3C, 6C

hyperforin
LC3 II protein (HepG2 cells [1]): induces | LC3 II in the presence of TFEB (TFEB; non-targeting control (NT) HepG2 cells): induces | LC3 II induction in siTFEB cells (TFEB; siTFEB HepG2 cells): blunted | pathological A1AT accumulation (alpha-1-antitrypsin): robustly decreases | autophagic flux (GFP-RFP-LC3 dots) (HepG2 cells [2]): induced autophagic flux
